Assay results from patent US20220040280A1, “INHIBITORS AND USES THEREOF” (UNIVERSITY OF CANBERRA, priority 2016, published 2022).
Entries after “also recorded” stand apart in the source; their conditions may differ. Residues, ends and D or L forms follow the SMILES beside them. *: point of attachment. Myristoyl = CCCCCCCCCCCCCC(=O)*

B1: IFNγ: interferon gamma used as stimulus (10 μg/mL) (protein, UniProt P01579 24-161, looked up)
Interferon gamma: QDPYVKEAENLKKYFNAGHSDVADNGTLFLGILKNWKEESDRKIMQSQIVSFYFKLFKNFKDDQSIQKSVETIKEDMNVKFFNSNKKKRDDFEKLTNYSVTDLNVQRKAIHELIQVMAELSPAAKTGKRKRSQMLFRG

Experiments:
[1] = molecular target: T1, LSD1 phosphorylated at serine 111 (LSD1s111p) (Homo sapiens, UniProt O60341); assay: Confocal microscopy of LSD1s111p in MCF7 cells treated with peptide inhibitors; format: cell-based; details: stimulated and non-stimulated MCF7 cells, relative to control, FIG. 4
T1 construct: endogenous in cells; host or cells: MCF7 (non-stimulated or PMA-stimulated) and MDA-MB-231 breast cancer cells
Procedure: (§1) Cells were probed with either rabbit antibodies to LSD1s111p (Merck ABE1462), EGFR (AB2430), MET (ab51067), PD-L1 (sc-50298), goat antibodies to PD-L1 (sc-19091), SC-14033), (sc-19096), mouse antibodies to Cytokeratin (Miltenyi 130-090-866), CSV (Abnova H00007431-M08), vimentin (SC-6260) followed by visualisation with secondary anti mouse Alexa-Fluor 568 (A10037), secondary anti rabbit Alexa-Fluor 488 (A21206) or secondary anti goat Alexa-Fluor 633 (A21082).
(§2) MDA-MB-231 or MCF7 cells were treated with one of L1, L2 or L3 and a control. Cells were then fixed with 3.7% formaldehyde and permeabilized with 2% Triton-X-100, then probed with a primary mouse antibody against LSD1 or a primary rabbit antibody against PD-L1, EGFR or MET, followed by visualization with a secondary goat antibody to mouse or rabbit immunoglobulins conjugated to Alexa-Fluor 488. Confocal laser scanning microscopy was used to measure the Fn/c (ratio of nuclear to cytoplasmic fluorescent intensity) ratio of LSD1 with Fiji-imageJ or the total nuclear fluorescence of PD-L1, EGFR or MET. Values are plotted with significant differences indicated using the Mann-Whitney T-test, with at least 20 cells counted per sample. Representative images for each treatment are shown.

[2] = system: EGFR; assay: Confocal microscopy of EGFR in MDA-MB-231 cells treated with peptide inhibitors; format: cell-based, human; details: in comparison to control, FIG. 23
Procedure: as §2

[3] = system: PD-L1; assay: Confocal microscopy of PD-L1 in MDA-MB-231 cells treated with peptide inhibitors; format: cell-based, human; details: for cytoplasmic/surface expression of PD-L1 (TCFI) / expression of nuclear PD-L1 (TNFI) / PD-L1 nuclear expression: MDA-MB-231 cells; for cytoplasmic/surface expression of PD-L1 (TCFI) / expression of nuclear PD-L1 (TNFI): FIG. 6; for PD-L1 nuclear expression: in comparison to the control, FIG. 22 (50 μM and 100 μM); for Fn/c ratio (nuclear bias) of PD-L1: peptide treated MDA-MB-231 cells
Procedure: as §1, §2

[4] = system: MET; assay: Confocal microscopy of MET in MDA-MB-231 cells treated with peptide inhibitors; format: cell-based, human; details: in comparison to control, FIG. 24
Procedure: as §2

[5] = molecular target: T1, LSD1 phosphorylated at serine 111 (LSD1s111p); assay: Confocal microscopy of LSD1s111p in MDA-MB-231 cells treated with peptide inhibitors; format: cell-based; details: relative to control, FIG. 4
Procedure: as §1, §2

[6] = molecular target: T2, LSD1 (Homo sapiens, UniProt O60341); assay: LSD1 nuclear translocation in MDA-MB-231 cells, confocal microscopy; format: cell-based; details: FIG. 19 and FIG. 31
T2 construct: endogenous in cells; host or cells: MCF7 (non-stimulated or PMA-stimulated) and MDA-MB-231 breast cancer cells
Procedure: as §2
Confocal laser scanning microscopy was performed on MDA-MB-231 cells treated with a LSD1 peptide inhibitor, L1, L2 or L3, or vehicle alone. Cells were fixed with 3.7% formaldehyde and permeabilized with 2% Triton-X-100, and then probed with a primary mouse antibody to LSD1, followed by the corresponding secondary antibody conjugated to Alexa-Fluor 488. Confocal laser scanning microscopy was used to determine the Fn/c ratio of LSD1 with image-J. Values are plotted with significant differences indicated. Data shown represent the mean±SE for at least 20 individual cells.

[7] = system: PD-L1; assay: Confocal microscopy of PD-L1 in MCF7 cells treated with peptide inhibitors; format: cell-based, human; details: for abrogation of nuclear PD-L1 expression: epithelial non-stimulated MCF7 cells, compared with stimulated cells; for Fn/c ratio (nuclear bias) of PD-L1: peptide treated MCF7 cells; for cytoplasmic/surface expression of PD-L1 (TCFI): stimulated MCF7 cells; for cytoplasmic/surface expression of PD-L1 (TCFI) / expression of nuclear PD-L1 (TNFI): FIG. 5; for expression of nuclear PD-L1 (TNFI): stimulated, mesenchymal MCF7 cells
Procedure: as §1, §2

[8] = system: MDA-MB-231 cells; details: 100 μM, FIG. 21
Procedure: (§4) 5×10^4 MCF7 or MDA-MB-231 cells were seeded with 1 mL of complete DMEM in 12 well plates overnight. […] Samples were harvested by trypsinisation followed by washing with DPBS containing 2% HI-FBS. FACS staining were performed using anti-human CD44-APC, anti-human CD24-PE, Hoechst, and anti-human EpCAM antibody cocktails. Data was collected from a BD FACSLSR-II flow cytometer. Treestar FlowJo was used for data analysis.

[9] = system: MCF7 cells; details: PMA stimulated MCF7 cells, 50 μM and 100 μM tested, FIG. 20
Procedure: as §4

[10] = system: MDA-MB-231 breast cancer cells; assay: Flow cytometry of stimulated MDA-MB-231 cells (PD-L1, CD44, CD24); format: cell-based, human; details: for Median Fluorescence Intensity (MFI) of PD-L1, change on stimulation: MDA-MB-231 cells
Procedure: MCF7 and MDA-MB-231 cells were obtained from the American Type Culture Collection (Manassas, Va.). Cells were cultured in DMEM (Invitrogen, Life Technologies, Carlsbad, Calif.) supplemented with 10% FBS, 2 mM L-glutamine, and 1% penicillin-streptomycin-neomycin. MCF7 cells were stimulated with 1.32 ng/ml phorbol 12-myristate 13-acetate (PMA) (Sigma-Aldrich, St Louis, Mo.) or 5 ng/ml recombinant TGF-β1 (R&D Systems, Minneapolis, Minn.) for 60 h. For the co-culture assay MDA-MB-231 cells were stimulated with Jurkat T-cells at defined ratios.
(§3) Isolated PBMCs and CTCs were stained with CD45−APC, pan-cytokeratin (CK)-FITC, EpCAM-Percp-Cy5.5 and PD-L1-BV421 antibodies. Co-cultured MDA-MB-231 cells were stained with CD44, CD24 and PD-L1. Flow cytometric analysis was performed on single cell suspensions for using the BD LSR II Flow Cytometer.

[11] = system: MDA-MB-231 breast cancer cells; assay: as above; format: cell-based, human; details: IFNγ 10 μg/mL, PMA 24 ng/mL, 24 or 48 hours
[12] = system: PD-L1; assay: FACS of PD-L1 in CD45-CK+ circulating tumor cells from patient liquid biopsies; format: cell-based, human; details: CD45-CK+ CTCs
Procedure: as §3

[13] = stimulated MDA-MB-231, 24 hours
[14] = stimulated MDA-MB-231, 48 hours

| Molecule | nuclear expression of LSD1s111p (TNFI) [1] | EGFR nuclear expression (TNFI) [2] | cytoplasmic/surface expression of PD-L1 (TCFI) [3] | expression of nuclear PD-L1 (TNFI) [3] | PD-L1 nuclear expression [3] | Fn/c ratio (nuclear bias) of PD-L1 [3] | MET nuclear expression (TNFI) [4] | nuclear expression of LSD1s111p (TNFI) [5] | nuclear translocation of LSD1 (Fn/c) [6] | abrogation of nuclear PD-L1 expression [7] | Fn/c ratio (nuclear bias) of PD-L1 [7] | cytoplasmic/surface expression of PD-L1 (TCFI) [7] | expression of nuclear PD-L1 (TNFI) [7] | cancer stem cell formation [8] | Median Fluorescence Intensity (MFI) of PD-L1, change on stimulation [10] | CD44^hi CD24^lo (Frequency of parent, %) [10, 13] [%] | CD44^hi CD24^lo, PD-L1+ (Frequency of parent, %) [10, 13] [%] | Mean Fluorescence Intensity of Comp Pacific Blue-A PD-L1, CD44^hi CD24^lo, PD-L1+ subset [10, 13] | Mean Fluorescence Intensity of Comp Pacific Blue-A PD-L1, PD-L1+ subset [10, 13] | PD-L1+ (Frequency of parent, %) [10, 13] [%] | also measured |
| --- | --- | --- | --- | --- | --- | --- | --- | --- | --- | --- | --- | --- | --- | --- | --- | --- | --- | --- | --- | --- | --- |
| CCCCCCCCCCCCCC(=O)N[C@@H](CCCNC(=N)N)C(=O)N[C@@H](Cc1c[nH]c2ccccc12)C(=O)N[C@@H](CCCNC(=N)N)C(=O)N[C@@H](CCCNC(=N)N)C(=O)N[C@H](C(=O)N[C@@H](C)C(=O)N[C@@H](CCCNC(=N)N)C(=O)N[C@@H](CCCNC(=N)N)C(=O)N[C@@H](CCCCN)C(=O)N[C@@H](CCCNC(=N)N)C(=O)N[C@@H](C)C(=O)N[C@@H](CCCCN)C(=O)N[C@H](C(=O)O)C(C)C)[C@@H](C)O [Peptide L3, Myristoyl-RWRRTARRKRAKV-OH] (Myristoyl-RWRRTARRKRAKV-OH) | significantly abrogated | reduction | significantly inhibited | significantly abrogated | abrogated | strongly nuclear | significant abrogation | significantly abrogated | inhibited; also recorded: clearly abrogated | lessened | strongly nuclear | significantly inhibited | significantly abrogated | significant reduction |  |  |  |  |  |  |  |
| CCCCCCCCCCCCCC(=O)N[C@@H](CCCNC(=N)N)C(=O)N[C@@H](CCCNC(=N)N)C(=O)N[C@H](C(=O)N[C@@H](CO)C(=O)N[C@@H](CCCNC(=N)N)C(=O)N[C@@H](CCCNC(=N)N)C(=O)N[C@@H](CCCCN)C(=O)N[C@@H](CCCNC(=N)N)C(=O)N[C@@H](C)C(=O)N[C@@H](CCCCN)C(=O)N[C@H](C(=O)O)C(C)C)[C@@H](C)O [Peptide L1, Myristoyl-RRTSRRKRAKV-OH] (Myristoyl-RRTSRRKRAKV-OH) | significantly abrogated | significant abrogation | significantly inhibited | significantly abrogated | abrogated | strongly nuclear | significant abrogation | significantly abrogated | inhibited; also recorded: clearly abrogated | lessened | strongly nuclear | significantly inhibited | significantly abrogated | significant reduction |  |  |  |  |  |  | cancer stem cell formation [9]: inhibited |
| CCCCCCCCCCCCCC(=O)O[C@@H]1[C@@H](C)[C@@]2(O)[C@@H](C=C(CO)C[C@]3(O)C(=O)C(C)=C[C@@H]23)[C@@H]2C(C)(C)[C@]12OC(C)=O [PMA, phorbol 12-myristate 13-acetate, reference compound] |  |  |  |  |  |  |  |  |  |  |  |  |  |  | decreased | 98.4 | 98.6 | 3145 | 3126 | 98.5 | CD44^hi CD24^lo (Frequency of parent, %) [10, 14]: 98.3%; CD44^hi CD24^lo, PD-L1+ (Frequency of parent, %) [10, 14]: 99.2%; Mean Fluorescence Intensity of Comp Pacific Blue-A PD-L1, CD44^hi CD24^lo, PD-L1+ subset [10, 14]: 4016; Mean Fluorescence Intensity of Comp Pacific Blue-A PD-L1, PD-L1+ subset [10, 14]: 3983; PD-L1+ (Frequency of parent, %) [10, 14]: 99.1%; frequency (%) of PD-L1+ cells, change on stimulation [11]: not altered |
| CN(C)C(=O)c1cc2cnc(Nc3ccc(N4CCNCC4)cn3)nc2n1C1CCCC1 [Ribociclib] |  |  |  |  |  |  |  |  |  |  |  |  |  |  |  |  |  |  |  |  | PD-L1 nuclear (nPD-L1) expression ([12]; Patient A, FIG. 18A): greatest inhibition; PD-L1 nuclear expression ([12]; Patient B, FIG. 18B): inhibited; PD-L1 surface/cytoplasmic expression ([12]; Patient B, FIG. 18B): inhibited |
| B1 |  |  |  |  |  |  |  |  |  |  |  |  |  |  | increases | 77.7 | 99.7 | 6173 | 6015 | 99.7 | CD44^hi CD24^lo (Frequency of parent, %) [10, 14]: 98.9%; CD44^hi CD24^lo, PD-L1+ (Frequency of parent, %) [10, 14]: 99.7%; Mean Fluorescence Intensity of Comp Pacific Blue-A PD-L1, CD44^hi CD24^lo, PD-L1+ subset [10, 14]: 6173; Mean Fluorescence Intensity of Comp Pacific Blue-A PD-L1, PD-L1+ subset [10, 14]: 6133; PD-L1+ (Frequency of parent, %) [10, 14]: 99.7%; frequency (%) of PD-L1+ cells, change on stimulation [11]: not altered |
